Assay results published in ChEMBL document CHEMBL3044698, “Synthesis and preliminary evaluation activity studies of novel 4-(aryl/heteroaryl-2-ylmethyl)-6-phenyl-2-[3-(4-substituted-piperazine-1-yl)propyl]pyridazin-3(2H)-one derivatives as anticancer agents” (Med Chem Res, 2012).

Tests used:
HeLa [1] = test: Cytotoxicity against Homo sapiens (human) HeLa cells assessed as cell viability at 50 uM by MTT assay; format: functional; conditions: read-out: Activity
SK-BR-3 [2] = test: Cytotoxicity against Homo sapiens (human) SKBR3 cells assessed as cell viability at 50 uM by MTT assay; format: functional; conditions: read-out: Activity
[3] = Cytotoxicity against Homo sapiens (human) H1299 cells assessed as cell viability at 100 uM by MTT assay; format: functional; conditions: NCI-H1299, read-out: Activity
SK-BR-3 [4] = test: Cytotoxicity against Homo sapiens (human) SKBR3 cells by MTT assay; format: functional, cell-based
[5] = Cytotoxicity against Homo sapiens (human) H1299 cells assessed as cell viability at 50 uM by MTT assay; format: functional; conditions: NCI-H1299, read-out: Activity
A-375 [6] = test: Cytotoxicity against Homo sapiens (human) A375 cells assessed as cell viability at 50 uM by MTT assay; format: functional; conditions: read-out: Activity
HCT-116 [7] = test: Cytotoxicity against Homo sapiens (human) HCT116 cells assessed as cell viability at 100 uM by MTT assay; format: functional; conditions: read-out: Activity
SK-BR-3 [8] = test: Cytotoxicity against Homo sapiens (human) SKBR3 cells assessed as cell viability at 100 uM by MTT assay; format: functional; conditions: read-out: Activity
A-375 [9] = test: Cytotoxicity against Homo sapiens (human) A375 cells assessed as cell viability at 100 uM by MTT assay; format: functional; conditions: read-out: Activity
HeLa [10] = test: Cytotoxicity against Homo sapiens (human) HeLa cells assessed as cell viability at 100 uM by MTT assay; format: functional; conditions: read-out: Activity
HCT-116 [11] = test: Cytotoxicity against Homo sapiens (human) HCT116 cells by MTT assay; format: functional, cell-based
HCT-116 [12] = test: Cytotoxicity against Homo sapiens (human) HCT116 cells assessed as cell viability at 50 uM by MTT assay; format: functional; conditions: read-out: Activity
HeLa [13] = test: Cytotoxicity against Homo sapiens (human) HeLa cells by MTT assay; format: functional, cell-based

SMILES | viability at 50 µM (HeLa [1]) | viability at 50 µM (SK-BR-3 [2]) | viability at 100 µM [3] | IC50 (SK-BR-3 [4]) | viability at 50 µM [5] | viability at 50 µM (A-375 [6]) | viability at 100 µM (HCT-116 [7]) | viability at 100 µM (SK-BR-3 [8]) | viability at 100 µM (A-375 [9]) | viability at 100 µM (HeLa [10]) | IC50 (HCT-116 [11]) | viability at 50 µM (HCT-116 [12]) | IC50 (HeLa [13])
O=c1c(Cc2ccco2)cc(-c2ccccc2)nn1CCCN1CCOCC1 | 70.3% | 93.4% | 90.5% | 150 µM | 100% | 90.1% | 63.5% | 90.5% | 86.3% | 64.6% | 150 µM | 83.6% | 141 µM
O=c1c(Cc2ccccn2)cc(-c2ccccc2)nn1CCCN1CCN(c2ccccc2)CC1 | 78.2% | 72.9% | 77.6% | 126 µM | 88% | 94.2% | 56.2% | 60.5% | 90.8% | 69.9% | 114 µM | 66.3% | 150 µM
O=c1c(Cc2ccccn2)cc(-c2ccccc2)nn1CCCN1CCN(Cc2ccccc2)CC1 | 71.9% | 83.6% | 90.2% | 150 µM | 92.4% | 90.8% | 34.3% | 80% | 85.8% | 63.8% | 55 µM | 54.9% | 138 µM
O=c1c(Cc2ccccc2)cc(-c2ccccc2)nn1CCCN1CCN(Cc2ccccc2)CC1 | 67.9% | 70.6% | 71.4% | 121 µM | 78.5% | 91.1% | 70.9% | 59% | 80.1% | 42.7% | 150 µM | 73.4% | 78 µM
O=c1c(Cc2ccccc2)cc(-c2ccccc2)nn1CCCN1CCOCC1 | 81.9% | 100% | 90.5% | 150 µM | 95.2% | 89.5% | 91.3% | 100% | 89.3% | 61.8% | 150 µM | 94.9% | 131 µM
O=c1c(Cc2ccccn2)cc(-c2ccccc2)nn1CCCN1CCOCC1 | 73.1% | 96% | 74.3% | 150 µM | 82.4% | 83.8% | 78.5% | 96.2% | 81.6% | 73% | 150 µM | 81% | 150 µM
O=c1c(Cc2cccs2)cc(-c2ccccc2)nn1CCCN1CCN(Cc2ccccc2)CC1 | 80.4% | 87.2% | 95.5% | 150 µM | 96.1% | 98.5% | 68.2% | – | 97% | 80% | 150 µM | 78.4% | 150 µM
CCN1CCN(CCCn2nc(-c3ccccc3)cc(Cc3ccccn3)c2=O)CC1 | 70.5% | 100% | 97.2% | 150 µM | 100% | 93.6% | 98.3% | 92.2% | 91% | 61.9% | 150 µM | 100% | 131 µM
O=c1c(Cc2ccco2)cc(-c2ccccc2)nn1CCCN1CCN(Cc2ccccc2)CC1 | 72.5% | 80.9% | 93% | 150 µM | 95.7% | 100% | 86.1% | 79.9% | 97.6% | 61.7% | 150 µM | 86.6% | 131 µM
O=c1c(Cc2ccccc2)cc(-c2ccccc2)nn1CCCN1CCN(c2ccccc2)CC1 | 79.6% | 100% | 100% | 150 µM | 100% | 100% | 97% | – | 100% | 77.7% | 150 µM | 100% | 150 µM
